Assay results: patent US11123337B2, “4-methylsulfonyl-substituted piperidine urea compounds” (MYOKARDIA, INC., priority 2015, dated 2021)

Target: bovine cardiac myosin (Bos taurus, UniProt Q9BE39)
Experiment: Myosin activation assay (PK/LDH-coupled ATPase, bovine cardiac myofibrils)
Type: biochemical
Details: AC20 = concentration at which total response is increased by twenty percent
Summary of the method: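 Skinned bovine cardiac myofibrils (1 mg/mL) in PIPES/MgCl2 buffer pH 6.8 at free Ca2+ giving ~50% (pCa ~6) or <5% (pCa 10) activation, with 50 μM ATP and 3.3% DMSO. ATPase rate from NADH absorbance at 340 nm (PK/LDH coupling) over 15 min at ambient temperature. AC20/AC50 from a four-parameter fit of DMSO-normalised rates.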

bovine cardiac myosin, sequence (Q9BE39 whole entry): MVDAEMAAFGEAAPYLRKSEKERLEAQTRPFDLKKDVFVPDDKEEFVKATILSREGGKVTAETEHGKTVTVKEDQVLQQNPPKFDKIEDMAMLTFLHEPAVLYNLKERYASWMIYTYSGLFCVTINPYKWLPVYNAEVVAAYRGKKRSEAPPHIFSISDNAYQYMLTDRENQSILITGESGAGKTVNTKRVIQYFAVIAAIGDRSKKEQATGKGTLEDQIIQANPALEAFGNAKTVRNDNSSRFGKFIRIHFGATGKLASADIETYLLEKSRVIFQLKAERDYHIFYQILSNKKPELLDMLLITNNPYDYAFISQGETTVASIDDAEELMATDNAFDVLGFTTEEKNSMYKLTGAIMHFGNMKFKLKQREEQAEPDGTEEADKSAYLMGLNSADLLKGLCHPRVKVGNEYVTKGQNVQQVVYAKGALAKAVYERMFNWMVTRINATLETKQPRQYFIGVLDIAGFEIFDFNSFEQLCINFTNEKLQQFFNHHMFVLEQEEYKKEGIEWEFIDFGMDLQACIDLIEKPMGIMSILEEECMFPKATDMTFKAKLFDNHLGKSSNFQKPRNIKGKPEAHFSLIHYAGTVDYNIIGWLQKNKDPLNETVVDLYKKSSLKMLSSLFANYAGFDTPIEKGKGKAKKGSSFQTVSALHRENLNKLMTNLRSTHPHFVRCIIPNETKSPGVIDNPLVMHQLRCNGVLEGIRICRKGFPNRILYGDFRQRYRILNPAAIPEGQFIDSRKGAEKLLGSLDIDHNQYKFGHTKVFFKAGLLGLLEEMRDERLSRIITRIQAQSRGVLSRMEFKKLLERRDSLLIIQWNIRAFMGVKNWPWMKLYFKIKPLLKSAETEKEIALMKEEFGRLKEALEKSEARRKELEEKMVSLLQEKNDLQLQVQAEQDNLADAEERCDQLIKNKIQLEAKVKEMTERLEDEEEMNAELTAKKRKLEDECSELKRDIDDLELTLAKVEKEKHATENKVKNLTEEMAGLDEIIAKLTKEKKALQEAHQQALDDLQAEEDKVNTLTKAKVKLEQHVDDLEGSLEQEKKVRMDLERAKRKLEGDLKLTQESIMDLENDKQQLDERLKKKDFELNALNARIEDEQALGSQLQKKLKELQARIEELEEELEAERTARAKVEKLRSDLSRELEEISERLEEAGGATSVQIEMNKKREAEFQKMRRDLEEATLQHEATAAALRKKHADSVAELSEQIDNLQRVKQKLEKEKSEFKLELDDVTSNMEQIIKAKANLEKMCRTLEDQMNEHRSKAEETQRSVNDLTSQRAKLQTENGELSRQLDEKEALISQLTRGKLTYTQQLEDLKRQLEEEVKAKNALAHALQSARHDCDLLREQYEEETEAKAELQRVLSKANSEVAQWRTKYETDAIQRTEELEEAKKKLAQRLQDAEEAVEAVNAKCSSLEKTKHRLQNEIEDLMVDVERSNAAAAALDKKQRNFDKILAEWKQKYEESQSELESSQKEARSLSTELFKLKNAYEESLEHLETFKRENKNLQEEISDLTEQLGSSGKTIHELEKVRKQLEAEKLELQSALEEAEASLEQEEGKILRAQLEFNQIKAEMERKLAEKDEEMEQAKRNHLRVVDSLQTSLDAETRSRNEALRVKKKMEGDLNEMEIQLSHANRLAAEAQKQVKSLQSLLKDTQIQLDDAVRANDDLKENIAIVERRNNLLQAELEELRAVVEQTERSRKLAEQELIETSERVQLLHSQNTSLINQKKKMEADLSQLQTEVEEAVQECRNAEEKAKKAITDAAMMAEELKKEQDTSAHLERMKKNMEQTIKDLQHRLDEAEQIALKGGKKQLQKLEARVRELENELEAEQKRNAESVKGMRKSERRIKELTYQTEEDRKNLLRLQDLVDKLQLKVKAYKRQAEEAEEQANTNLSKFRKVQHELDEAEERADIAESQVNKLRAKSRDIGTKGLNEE
bovine cardiac myosin, sequence (P85100 whole entry partner): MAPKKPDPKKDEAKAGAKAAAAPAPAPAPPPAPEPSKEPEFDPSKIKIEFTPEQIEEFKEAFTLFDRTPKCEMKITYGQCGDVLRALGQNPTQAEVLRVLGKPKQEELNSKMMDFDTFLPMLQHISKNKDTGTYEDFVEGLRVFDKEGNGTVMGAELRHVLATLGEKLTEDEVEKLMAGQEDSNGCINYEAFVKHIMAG
bovine cardiac myosin, sequence (Q3SZE5 whole entry partner): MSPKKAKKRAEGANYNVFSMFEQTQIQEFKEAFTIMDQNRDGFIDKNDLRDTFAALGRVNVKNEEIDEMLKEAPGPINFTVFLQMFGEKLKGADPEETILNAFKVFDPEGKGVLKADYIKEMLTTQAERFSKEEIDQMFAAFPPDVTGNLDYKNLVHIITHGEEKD

Row | SMILES | Myosin Activation (AC20)
1 | CC(F)(C1CCN(C(=O)Nc2nnco2)CC1)S(=O)(=O)c1cccc(F)c1 (stereo not shown) [Compound 222, 4-(1-fluoro-1-((3-fluorophenyl)sulfonyl)ethyl)-N-(1,3,4-oxadiazol-2-yl)piperidine-1-carboxamide] | + (+ represents myosin activation value AC20 > 5 μM)
2 | CC(F)(C1CCN(C(=O)Nc2cncc(F)c2)CC1)S(=O)(=O)c1cccc(F)c1 (stereo not shown) [Compound 223, 4-(1-fluoro-1-((3-fluorophenyl)sulfonyl)ethyl)-N-(5-fluoropyridin-3-yl)piperidine-1-carboxamide] | + (+ represents myosin activation value AC20 > 5 μM)
3 | CC(F)(C1CCN(C(=O)Nc2cccnc2)CC1)S(=O)(=O)c1cccc(F)c1 (stereo not shown) [Compound 224, 4-(1-fluoro-1-((3-fluorophenyl)sulfonyl)ethyl)-N-(pyridin-3-yl)piperidine-1-carboxamide] | ++ (++ represents myosin activation value AC20 from 2 μM-5 μM)
4 | Cc1ccc(NC(=O)N2CCC(C(C)(F)S(=O)(=O)c3ccnn3C)CC2)cn1 (stereo not shown) [Compound 225, 4-(1-fluoro-1-((1-methyl-1H-pyrazol-5-yl)sulfonyl)ethyl)-N-(6-methylpyridin-3-yl)piperidine-1-carboxamide] | ++ (++ represents myosin activation value AC20 from 2 μM-5 μM)
5 | Cn1nccc1S(=O)(=O)C(C)(F)C1CCN(C(=O)Nc2ccnc(F)c2)CC1 (stereo not shown) [Compound 226, 4-(1-fluoro-1-((1-methyl-1H-pyrazol-5-yl)sulfonyl)ethyl)-N-(2-fluoropyridin-4-yl)piperidine-1-carboxamide] | + (+ represents myosin activation value AC20 > 5 μM)
6 | Cn1nccc1S(=O)(=O)C(C)(F)C1CCN(C(=O)Nc2cccnc2)CC1 (stereo not shown) [Compound 227, 4-(1-fluoro-1-((1-methyl-1H-pyrazol-5-yl)sulfonyl)ethyl)-N-(pyridin-3-yl)piperidine-1-carboxamide] | + (+ represents myosin activation value AC20 > 5 μM)
7 | Cn1nccc1S(=O)(=O)C(C)(F)C1CCN(C(=O)Nc2ccc(F)nc2)CC1 (stereo not shown) [Compound 228, 4-(1-fluoro-1-((1-methyl-1H-pyrazol-5-yl)sulfonyl)ethyl)-N-(6-fluoropyridin-3-yl)piperidine-1-carboxamide] | ++ (++ represents myosin activation value AC20 from 2 μM-5 μM)
8 | Cn1nc(C(F)(F)F)cc1S(=O)(=O)[C@](C)(F)C1CCN(C(=O)Nc2ccon2)CC1 [Compound 229] | + (+ represents myosin activation value AC20 > 5 μM)
9 | Cn1nc(C(F)(F)F)cc1S(=O)(=O)[C@](C)(F)C1CCN(C(=O)Nc2ccnc(F)c2)CC1 [Compound 230, (S)-4-(1-fluoro-1-((1-methyl-3-(trifluoromethyl)-1H-pyrazol-5-yl)sulfonyl)ethyl)-N-(2-fluoropyridin-4-yl)piperidine-1-carboxamide] | + (+ represents myosin activation value AC20 > 5 μM)
10 | Cn1cc(S(=O)(=O)[C@](C)(F)C2CCN(C(=O)Nc3ccnc(F)c3)CC2)c(C(F)F)n1 [Compound 231, (S)-4-(1-((3-(difluoromethyl)-1-methyl-1H-pyrazol-4-yl)sulfonyl)-1-fluoroethyl)-N-(2-fluoropyridin-4-yl)piperidine-1-carboxamide] | + (+ represents myosin activation value AC20 > 5 μM)
11 | Cc1cc(NC(=O)N2CCC([C@](C)(F)S(=O)(=O)c3cc(C(F)(F)F)nn3C)CC2)ccn1 [Compound 232, (R)-4-(1-fluoro-1-((1-methyl-3-(trifluoromethyl)-1H-pyrazol-5-yl)sulfonyl)ethyl)-N-(2-methylpyridin-4-yl)piperidine-1-carboxamide] | +++ (+++ represents myosin activation value AC20 < 2 μM)
12 | Cc1cc(NC(=O)N2CCC([C@](C)(F)S(=O)(=O)c3cn(C)nc3C(F)F)CC2)ccn1 [Compound 233, (R)-4-(1-((3-(difluoromethyl)-1-methyl-1H-pyrazol-4-yl)sulfonyl)-1-fluoroethyl)-N-(2-methylpyridin-4-yl)piperidine-1-carboxamide] | +++ (+++ represents myosin activation value AC20 < 2 μM)
13 | CC(F)(C1CCN(C(=O)Nc2ccon2)CC1)S(=O)(=O)c1cccc(F)c1 (stereo not shown) [Compound 234, 4-(1-fluoro-1-((3-fluorophenyl)sulfonyl)ethyl)-N-(isoxazol-3-yl)piperidine-1-carboxamide] | +++ (+++ represents myosin activation value AC20 < 2 μM)
14 | CC(F)(C1CCN(C(=O)Nc2cnoc2)CC1)S(=O)(=O)c1cccc(F)c1 (stereo not shown) [Compound 235, 4-(1-fluoro-1-((3-fluorophenyl)sulfonyl)ethyl)-N-(isoxazol-4-yl)piperidine-1-carboxamide] | +++ (+++ represents myosin activation value AC20 < 2 μM)
15 | CC(F)(C1CCN(C(=O)Nc2ccnc(F)c2)CC1)S(=O)(=O)c1cccc(F)c1 (stereo not shown) [Compound 236, 4-(1-fluoro-1-((3-fluorophenyl)sulfonyl)ethyl)-N-(2-fluoropyridin-4-yl)piperidine-1-carboxamide] | ++ (++ represents myosin activation value AC20 from 2 μM-5 μM)
16 | CC(C)(C)OC(=O)n1cc(NC(=O)N2CCC(C(C)(F)S(=O)(=O)c3cccc(F)c3)CC2)cn1 (stereo not shown) [Compound 237, tert-butyl 4-(4-(1-fluoro-1-((3-fluorophenyl)sulfonyl)ethyl)piperidine-1-carboxamido)-1H-pyrazole-1-carboxylate] | + (+ represents myosin activation value AC20 > 5 μM)
17 | Cc1nocc1NC(=O)N1CCC(C(C)(F)S(=O)(=O)c2cccc(F)c2)CC1 (stereo not shown) [Compound 238, 4-(1-fluoro-1-((3-fluorophenyl)sulfonyl)ethyl)-N-(3-methylisoxazol-4-yl)piperidine-1-carboxamide] | + (+ represents myosin activation value AC20 > 5 μM)
18 | CC(F)(C1CCN(C(=O)Nc2ccc(F)nc2)CC1)S(=O)(=O)c1cccc(F)c1 (stereo not shown) [Compound 239, 4-(1-fluoro-1-((3-fluorophenyl)sulfonyl)ethyl)-N-(6-fluoropyridin-3-yl)piperidine-1-carboxamide] | ++ (++ represents myosin activation value AC20 from 2 μM-5 μM)
19 | CC(F)(C1CCN(C(=O)Nc2ccc(F)nc2)CC1)S(=O)(=O)c1ccc(C#N)cc1 (stereo not shown) [Compound 240, 4-(1-((4-cyanophenyl)sulfonyl)-1-fluoroethyl)-N-(6-fluoropyridin-3-yl)piperidine-1-carboxamide] | ++ (++ represents myosin activation value AC20 from 2 μM-5 μM)
20 | CC(F)(C1CCN(C(=O)Nc2ccc(F)nc2)CC1)S(=O)(=O)c1cccc(C#N)c1 (stereo not shown) [Compound 241, 4-(1-((3-cyanophenyl)sulfonyl)-1-fluoroethyl)-N-(6-fluoropyridin-3-yl)piperidine-1-carboxamide] | + (+ represents myosin activation value AC20 > 5 μM)
21 | CC(F)(C1CCN(C(=O)Nc2ccc(F)nc2)CC1)S(=O)(=O)c1ccc(C(F)(F)F)cc1 (stereo not shown) [Compound 242, 4-(1-fluoro-1-((4-(trifluoromethyl)phenyl)sulfonyl)ethyl)-N-(6-fluoropyridin-3-yl)piperidine-1-carboxamide] | ++ (++ represents myosin activation value AC20 from 2 μM-5 μM)
22 | CC(F)(C1CCN(C(=O)Nc2ccnc(F)c2)CC1)S(=O)(=O)c1ccc(C(F)(F)F)cc1 (stereo not shown) [Compound 243, 4-(1-fluoro-1-((4-(trifluoromethyl)phenyl)sulfonyl)ethyl)-N-(2-fluoropyridin-4-yl)piperidine-1-carboxamide] | ++ (++ represents myosin activation value AC20 from 2 μM-5 μM)
23 | Cn1cc(S(=O)(=O)C(C)(F)C2CCN(C(=O)Nc3ccc(F)nc3)CC2)c(C(F)(F)F)n1 (stereo not shown) [Compound 244, 4-(1-fluoro-1-((1-methyl-3-(trifluoromethyl)-1H-pyrazol-4-yl)sulfonyl)ethyl)-N-(6-fluoropyridin-3-yl)piperidine-1-carboxamide] | + (+ represents myosin activation value AC20 > 5 μM)
24 | Cn1cc(S(=O)(=O)C(C)(F)C2CCN(C(=O)Nc3ccnc(F)c3)CC2)c(C(F)(F)F)n1 (stereo not shown) [Compound 245, 4-(1-fluoro-1-((1-methyl-3-(trifluoromethyl)-1H-pyrazol-4-yl)sulfonyl)ethyl)-N-(2-fluoropyridin-4-yl)piperidine-1-carboxamide] | ++ (++ represents myosin activation value AC20 from 2 μM-5 μM)
25 | Cc1ccc(NC(=O)N2CCC(C(C)(F)S(=O)(=O)c3cn(C)nc3C(F)(F)F)CC2)cn1 (stereo not shown) [Compound 247, 4-(1-fluoro-1-((1-methyl-3-(trifluoromethyl)-1H-pyrazol-4-yl)sulfonyl)ethyl)-N-(6-methylpyridin-3-yl)piperidine-1-carboxamide] | + (+ represents myosin activation value AC20 > 5 μM)
26 | Cn1cc(S(=O)(=O)[C@@](C)(F)C2CCN(C(=O)Nc3cocn3)CC2)c(C(F)F)n1 [Compound 248, (R)-4-(1-((3-(difluoromethyl)-1-methyl-1H-pyrazol-4-yl)sulfonyl)-1-fluoroethyl)-N-(oxazol-4-yl)piperidine-1-carboxamide] | + (+ represents myosin activation value AC20 > 5 μM)
27 | Cn1nc(C(F)(F)F)cc1S(=O)(=O)C(C)(F)C1CCN(C(=O)Nc2ccon2)CC1 (stereo not shown) [Compound 249, 4-(1-fluoro-1-((1-methyl-3-(trifluoromethyl)-1H-pyrazol-5-yl)sulfonyl)ethyl)-N-(isoxazol-3-yl)piperidine-1-carboxamide] | ++ (++ represents myosin activation value AC20 from 2 μM-5 μM)
28 | Cc1ccc(NC(=O)N2CCC(C(C)(F)S(=O)(=O)c3cc(C(F)(F)F)nn3C)CC2)cn1 (stereo not shown) [Compound 250, 4-(1-fluoro-1-((1-methyl-3-(trifluoromethyl)-1H-pyrazol-5-yl)sulfonyl)ethyl)-N-(6-methylpyridin-3-yl)piperidine-1-carboxamide] | ++ (++ represents myosin activation value AC20 from 2 μM-5 μM)
